Source: the supplement of paper PMC10307832

Key:
Experiment in all cases: relative viability (nuclei count vs DMSO), 5 days (fraction); higher = more cells survive
SGI-1776 + Phenformin = compound: CN1CCC(CNc2ccc3ncc(-c4cccc(OC(F)(F)F)c4)n3n2)CC1 [SGI-1776] + N=C(N)NC(=N)NCCc1ccccc1 [Phenformin] (partner 250 µM)
Method in brief: (§1)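 Values are medians from duplicate plates. Each reflects relative viability, defined as the nuclei count of treated wells over that of vehicle wells. Lung cancer cell lines in 1536-well plates were pin-tool dosed one day after seeding with one drug alone or with a fixed anchor-drug dose plus five library-drug doses (not always all listed) in √10 steps, then fixed, stained and imaged at 4× after 5 days.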

SGI-1776 + AZD7762 = compound: CN1CCC(CNc2ccc3ncc(-c4cccc(OC(F)(F)F)c4)n3n2)CC1 [SGI-1776] + NC(=O)Nc1cc(-c2cccc(F)c2)sc1C(=O)N[C@H]1CCCNC1 [AZD7762] (partner 0.2 µM)
Method in brief: as §1

SGI-1776 + Tozasertib = compound: CN1CCC(CNc2ccc3ncc(-c4cccc(OC(F)(F)F)c4)n3n2)CC1 [SGI-1776] + Cc1cc(Nc2cc(N3CCN(C)CC3)nc(Sc3ccc(NC(=O)C4CC4)cc3)n2)n[nH]1 [Tozasertib] (partner 0.1 µM)
Method in brief: as §1

[1] = compound: C1COCCN1C2=NC(=NC3=C2OC4=C3C=CC=N4)C5=CC(=CC=C5)NC(=O)C6=CN=C(C=C6)N + CCNC(=O)c1noc(-c2cc(C(C)C)c(O)cc2O)c1-c1ccc(CN2CCOCC2)cc1 [Luminespib] (partner 0.01 µM)
Method in brief: as §1

Cell Line	relative viability (SGI-1776 + Phenformin; first compound 0.08 µM)	relative viability (SGI-1776 + Phenformin; first compound 0.8 µM)	relative viability (SGI-1776 + Phenformin; first compound 2.53 µM)	relative viability (SGI-1776 + Phenformin; first compound 8 µM)	relative viability (SGI-1776 + AZD7762; first compound 0.08 µM)	relative viability (SGI-1776 + AZD7762; first compound 0.8 µM)	relative viability (SGI-1776 + AZD7762; first compound 2.53 µM)	relative viability (SGI-1776 + AZD7762; first compound 8 µM)	relative viability (SGI-1776 + Tozasertib; first compound 0.08 µM)	relative viability (SGI-1776 + Tozasertib; first compound 0.8 µM)	relative viability (SGI-1776 + Tozasertib; first compound 2.53 µM)	relative viability (SGI-1776 + Tozasertib; first compound 8 µM)	relative viability ([1]; first compound 0.02 µM)	relative viability ([1]; first compound 0.06325 µM)	relative viability ([1]; first compound 0.2 µM)	relative viability ([1]; first compound 0.6325 µM)	relative viability ([1]; first compound 2 µM)
NCI-H1437	0.322	0.259	0.296	0.297	1.11	1.13	1.07	1.02	0.435	0.439	0.344	0.314	0.859	1.21	1.04	1.08	0.537
NCI-H1651	0.386	0.396	0.311	0.251	0.537	0.519	0.494	0.419	0.619	0.642	0.31	0.344	0.949	0.992	0.999	0.856	0.557
NCI-H1666	0.615	0.544	0.527	0.502	0.945	0.873	0.862	0.834	0.667	0.44	0.406	0.436	0.88	0.996	0.957	0.727	0.63
NCI-H1734	0.41	0.366	0.394	0.284	0.616	0.687	0.654	0.568	0.245	0.226	0.246	0.219	0.169	0.197	0.204	0.182	0.156
NCI-H1755	0.617	0.584	0.576	0.516	0.459	0.575	0.463	0.378	0.626	0.521	0.452	0.373	0.447	0.666	0.436	0.235	0.239
NCI-H1793	0.389	0.219	0.262	0.249	0.558	0.408	0.32	0.252	0.335	0.248	0.252	0.22	0.16	0.192	0.168	0.165	0.158
NCI-H1915	0.37	0.368	0.382	0.357	0.756	0.663	0.705	0.791	0.456	0.418	0.33	0.198	0.95	0.85	0.829	0.432	0.267
NCI-H1944	0.186	0.188	0.189	0.164	0.619	0.595	0.518	0.441	0.247	0.252	0.253	0.226	0.728	0.786	0.665	0.555	0.553
NCI-H1975	0.426	0.41	0.403	0.379	0.749	0.745	0.631	0.43	0.809	0.335	0.169	0.175	0.157	0.148	0.202	0.29	0.3
NCI-H1993	0.538	0.515	0.515	0.492	0.839	0.941	0.889	0.482	0.568	0.607	0.57	0.571	0.906	0.776	0.707	0.802	0.689
NCI-H2085	0.852	0.8	0.795	0.58	1.08	1.06	0.978	0.956	0.858	0.617	0.463	0.389	0.386	0.46	0.402	0.372	0.327
NCI-H2087	0.444	0.394	0.432	0.44	1.29	1.36	1.44	1.27	0.257	0.198	0.186	0.192	0.146	0.16	0.137	0.204	0.142
NCI-H2126	0.543	0.509	0.535	0.473	1	0.98	1.02	0.959	0.926	0.607	0.553	0.239	0.892	0.894	0.871	0.845	0.566
NCI-H2170	0.388	0.382	0.345	0.307	0.839	0.966	0.874	0.828	0.708	0.692	0.452	0.181	0.579	0.893	0.723	0.606	0.584
NCI-H2342	0.696	0.669	0.532	0.501	0.57	0.625	0.442	0.517	0.668	0.456	0.504	0.357	0.746	0.768	0.719	0.665	0.596
NCI-H2347	0.652	0.44	0.333	0.396	0.825	0.912	0.81	0.692	0.491	0.579	0.418	0.279	0.37	0.283	0.341	0.342	0.315
NCI-H2405	0.384	0.304	0.215	0.227	0.706	0.728	0.57	0.608	0.711	0.484	0.353	0.314	0.647	0.644	0.639	0.536	0.473
